From PubChem BioAssay (NCI)
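Test compounds were applied to cells in 96-well plates for 48 hours at 5 doses. At the GI50, growth is halved. Definition used: TGI = concentration required for complete inhibition of growth.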

Assays:
Test in all cases: growth of human tumour cells (NCI), 48 h
SK-OV-3 ovarian = tested on: SK-OV-3 ovarian
KM12 colon = tested on: KM12 colon
COLO 205 colon = tested on: COLO 205 colon
NCI-H522 lung = tested on: NCI-H522 lung
HL-60(TB) leukemia = tested on: HL-60(TB) leukemia
MDA-MB-435 = tested on: MDA-MB-435
SNB-75 CNS = tested on: SNB-75 CNS
T-47D breast = tested on: T-47D breast
SNB-19 CNS = tested on: SNB-19 CNS
SN12C renal = tested on: SN12C renal

Compound	TGI (SK-OV-3 ovarian)	TGI (KM12 colon)	TGI (COLO 205 colon)	TGI (NCI-H522 lung)	TGI (HL-60(TB) leukemia)	TGI (MDA-MB-435)	TGI (SNB-75 CNS)	TGI (T-47D breast)	TGI (SNB-19 CNS)	TGI (SN12C renal)	GI50 (KM12 colon)	GI50 (COLO 205 colon)	GI50 (NCI-H522 lung)	GI50 (MDA-MB-435)	GI50 (SNB-75 CNS)	GI50 (T-47D breast)	GI50 (SNB-19 CNS)	GI50 (SN12C renal)
NC1(c2cc3ccccc3s2)CCCC1	> 100 µM	> 100 µM	43.1 µM	> 100 µM	> 100 µM	> 100 µM	> 100 µM	> 100 µM	> 100 µM	> 100 µM								
S=C(N/N=C(/c1ccccc1)c1ccccn1)N(Cc1ccccn1)Cc1ccccn1	1.66 µM	2.31 µM	2.02 µM	4.5 µM	> 100 µM	3.56 µM	2.24 µM	2.82 µM	2.26 µM	3.47 µM								
Nc1nccc(-c2c[nH]c3cc(Br)ccc23)n1	99.4 µM	80.9 µM	> 100 µM	38.4 µM	> 100 µM	80.4 µM	> 100 µM	> 100 µM	47.5 µM	49.8 µM								
Cc1cc(Nc2ccc(S(=O)(=O)O)c3cc(S(=O)(=O)O)cc(S(=O)(=O)O)c23)c2ccccc2n1	> 100 µM	> 100 µM	> 100 µM	> 100 µM	> 100 µM	> 100 µM	> 100 µM	> 100 µM	> 100 µM	> 100 µM								
Cc1ccccc1OC(C)C(=O)NN1C(=O)CSC1c1ccccc1 (stereo unspecified)	> 100 µM	> 100 µM	> 100 µM	> 100 µM		> 100 µM	> 100 µM	> 100 µM	> 100 µM	> 100 µM								
CC(=O)Nc1nc(NC(C)=O)c2[nH]c(CO)nc2n1	> 100 µM	> 100 µM	> 100 µM	> 100 µM	> 100 µM	> 100 µM	> 100 µM	> 100 µM	> 100 µM	> 100 µM								
c1ccc2c(c1)Cn1c-2nc2ccccc21	> 100 µM	> 100 µM	> 100 µM	> 100 µM	> 100 µM	> 100 µM	73.3 µM	> 100 µM	> 100 µM	> 100 µM								
COc1ccc(-c2[nH]c3c4c(nc5c(c24)C(=O)CC(C)(C)C5)CC(C)(C)C3)cc1	> 100 µM	> 100 µM	> 100 µM	> 100 µM	> 100 µM	> 100 µM	> 100 µM	> 100 µM	> 100 µM	> 100 µM								
O=C(OCc1ccccc1)N1CCNCCN(C(=O)OCc2ccccc2)CCNCC1	> 100 µM	66.1 µM		34.5 µM	93.4 µM	64.6 µM	85.2 µM	32.7 µM	> 100 µM	> 100 µM								
COc1ccc(CN2C(=O)/C(=C\c3cc(OC)c(OC)c(OC)c3)c3ccccc32)cc1		3.57 µM	3.44 µM	3.57 µM		5.08 µM	> 100 µM	7.31 µM	3.56 µM	> 100 µM	1.89 µM	1.89 µM	1.58 µM	2.09 µM	4.08 µM	2.06 µM	1.81 µM	3.04 µM
O=C(C1OC1c1ccc(Br)cc1O)C12CC3CC(CC(C3)C1)C2 (stereo unspecified)		41.4 µM		45.2 µM	40.9 µM	30.4 µM	58.1 µM	> 100 µM	> 100 µM	30.1 µM								
CN(C)CCNS(=O)(=O)c1ccc(N)cc1	> 100 µM	> 100 µM	> 100 µM	> 100 µM	> 100 µM	> 100 µM	> 100 µM	> 100 µM	> 100 µM	> 100 µM								
NC(=O)C(=Cn1c(=S)[nH]c2ccc([N+](=O)[O-])cc21)C(N)=O	> 100 µM	> 100 µM	> 100 µM		> 100 µM	> 100 µM	> 100 µM	> 100 µM	> 100 µM	> 100 µM								
COC(=O)C1CC(C=[N+](C)C)=C(SC)N1C(=O)OCc1ccccc1 (stereo unspecified)	> 100 µM	> 100 µM	> 100 µM	> 100 µM		> 100 µM	> 100 µM	> 100 µM	> 100 µM									
Cc1ccc(-c2csc(=Nc3ccccc3)n2NC(=O)c2ccncc2)cc1	> 100 µM	> 100 µM	82.5 µM		> 69.2 µM	> 100 µM	> 88.2 µM	58.7 µM	> 100 µM	> 100 µM								
C(=C(c1ccc(OC2CCCCO2)cc1)c1ccc(OC2CCCCO2)cc1)c1ccccc1 (stereo unspecified)	2.64 µM	0.677 µM	1.6 µM	2.4 µM	1.19 µM	1.7 µM	2.13 µM	2.14 µM	2.54 µM	2.47 µM								
C#CCn1c(=O)c2ccccc2n(CC#C)c1=O	> 10 µM	> 10 µM	> 10 µM	> 10 µM		> 10 µM	> 10 µM	> 10 µM	> 10 µM	> 10 µM								
CC(=O)N(C(=O)CC(=O)N1N=C(c2ccccc2)C(N=Nc2ccccc2[N+](=O)[O-])C1=O)c1ccc(Cl)cc1 (stereo unspecified)	> 10 µM	> 10 µM	> 10 µM	> 10 µM	> 10 µM	> 10 µM	> 10 µM	> 10 µM	> 10 µM	> 10 µM								
CC(C)=CCC[C@@H](C)c1c(O)c(O)c(C)c2nccnc12	> 100 µM	> 72 µM	> 80.7 µM	23.6 µM		> 100 µM	> 100 µM	> 79.8 µM	> 100 µM	> 100 µM								
Nc1nc2c(c(-c3cccc(Cl)c3)n1)COC/C2=C\c1cccc(Cl)c1	> 100 µM	> 100 µM	> 100 µM	> 100 µM	> 100 µM	> 100 µM	> 100 µM	> 100 µM	> 100 µM	> 100 µM								
Cc1ccc(N(Cc2ccccc2)Cc2ccccc2)cc1	> 100 µM	> 100 µM	> 100 µM	86.8 µM	> 100 µM	> 100 µM	> 100 µM	> 100 µM	> 100 µM	> 100 µM								
O=[N+]([O-])c1cc(C=NC23CC4CC(CC(C4)C2)C3)ccc1Cl	> 100 µM	55 µM	> 70.3 µM	32.7 µM	8.28 µM	42.2 µM	> 100 µM	40.8 µM	> 58.5 µM	35.2 µM								
